Test results published in patent publication US20210108199A1, “Treatment for aggressive cancers by targeting C9ORF72” (The Trustees of Columbia University in the City of New York, priority 2017, published 2021).

Assays:
Type in all cases: cell-based
U87 cells = assay: Transmission electron microscopy of vacuoles; settings: 72 hours of KD
Experimental: Since endocytic vacuoles (including macropinosomes) are known to have a single membrane U87 cells treated with control and siC9 siRNA (SEQ ID NO:631) were imaged using transmission electron microscopy (TEM). […] FIG. 13 is a set of representative TEM images of U87 cells treated with Control (siCtrl) and C9 (siC9) siRNA after 72 hours of KD. One asterisk indicates representative vacuoles; two asterisks represent membrane folding. The white boxes in FIG. 13A and FIG. 13B show locations for the digital zoomed-in images below, in FIG. 13C and FIG. 13D. The scale bar represents 5 μm.

PARP1 mRNA = assay: qRT-PCR of PARP1 mRNA; settings: U87 cells
Experimental: (§1) For most RNA experiments, RNA was isolated from cells using the Qiagen™ RNeasy minikit. Complementary DNA was generated using the Qiagen™ Quantitect™ reverse transcription kit with 0.5 μg of input RNA as measured with a NanoDrop spectrophotometer (Thermo Scientific™). Real-time PCR was carried out on an ABI StepOne Plus™ machine using power SYBR Green dye (Thermo Scientific™). Transcript levels were assayed in triplicate and normalized to RPL32 and HPS90 mRNAs. Relative changes in cDNA levels were calculated using the comparative Ct method (ΔΔCT method). All RT-qPCR primers were designed with Primer3Plus™ or retrieved from Primerbank™. Primer sequences are listed here, including in Table 3. All primers were purchased from Life Technologies™. H. Generation of p53 Knock Out U87 Cell Lines by CRISPR
Statistical significance was assessed by an unpaired t-test: NS P>0.05, *P≤0.05, **P≤0.01, ***P≤0.001 ****P≤0.0001.

γ-H2AX = γ-H2AX western blot and foci quantitation; settings: U87 cells
Experimental: Cells were treated with control and C9 siRNA for three days. Cells then were fixed and stained as described in the as described above with p-H2AX(S139, #25575) antibody. For a DNA damage positive control, 0.5 μM doxorubicin hydrochloride (Sigma™, D151510MG) was used for 24 hours before imaging. Cells were then imaged using LSM 700 Carl Zeiss™. To quantify p-H2AX foci we used a publicly available software FoCo™ as described previously.
To further confirm the presence of DNA damage upon C9 KD, the DNA damage marker γ-H2AX was used as a probe on C9 KD. […] Immunofluorescence was used to image and quantitate γ-H2AX foci in control, C9 KD and doxorubicin-treated U87 cells.
FIG. 25A is a WB showing γ-H2AX and ubiquitinated γ-H2AX, control (siCtrl) and C9 KD (siC9; SEQ ID NO:631), with loading of control actin. FIG. 25B is a set of IF images of U87 cells stained for γ-H2AX (green). FIG. 25C is a graph quantitating about 90 cells (from three biological replicates) for γ-H2AX foci per cell between control (siCtrl) C9 KD (siC9) and DOX-treated U87 cells. Statistical significance was assessed by an unpaired t-test: NS P>0.05, *P≤0.05, **P≤0.01, ***P≤0.001 ****P≤0.0001.

U87 p53 null KO #4 cells = assay: Vacuoles in p53 null cells transfected with HA tagged wtp53; settings: U87 p53 null KO #4 cells transfected with HA tagged wtp53
Experimental: To provide further evidence of p53 involvement in vacuolization, it was tested whether p53 transfection into p53 null cell lines in C9 KD background induced accumulation of vacuoles. […] In FIG. 36A, phase contrast images (40×) are shown of U87 p53 null KO #4 cells that were transfected with HA tagged wtp53 and then treated with control (siCtrl) or C9 (siC9; SEQ ID NO:631) siRNA. The black boxes show the location of the zoomed in images below with black arrows pointing to vacuoles. […] FIG. 36C is a graph that presents quantitation of data from about 100 cells, indicating the number of vacuoles per cell for conditions described above. Statistical significance was assessed by unpaired t-test: NS P>0.05, *P≤0.05, **P≤0.01, ***P≤0.001 ****P≤0.0001.

EGF mRNA = assay: qRT-PCR of EGF mRNA; settings: U87 cells
Experimental: as §1
How C9 levels affect EGF signaling was investigated. […] Furthermore, after 48 and 72 hours, the reduction of EGF mRNA levels was about 97%. See FIG. 39, which presents data from qRT-PCR analysis, showing mRNA levels of C9ORF72 and EGF in U87 cells treated with control or C9 siRNA for 24, 48 and 72 hours (represented as fold change). Statistical significance was assessed by an unpaired t-test: NS P>0.05, *P≤0.05, **P≤0.01, ***P≤0.001 ****P 0.0001.

[1] = tested on: HCC1937 cells (with BRCA1 mutation); assay: CellTiter-Glo viability assay in HCC1937 cells
Experimental: […] (HCC1937, with BRCA1 mutation) cells were harvested using trypsin (0.5 ml per well) and the media was saved from each well. The saved media were resuspended with the trypsinised cells and 2-3 aliquots (0.05 ml each) of this suspension was transferred to 96-well plates. HCC cells were subjected to S1 and S2 as described above. A CellTiter-Glo™ Luminescent Viability assay was used to measure the viability of these aliquots by adding 0.15 mL of the CTG-media mixture to each well. The rest of the culture was used to extract protein. Viability of cells was measured using the 1:1 dilution of the CellTiter-Glo™ Luminescent reagent (Promega™) with media, which was read on a Victor 5™ plate reader after 10 minutes of shaking at room temperature. The intensity of luminescence was normalized to that of the DMSO control.
Without being bound to any particular theory, it is believed that this is because PARP1 is inhibited which is known to cause death in BRCA1 deficient breast cancer cell lines.

For “siC9: siRNA targeting C9 mRNA: UUAAUGAAACAAUAAUCACUC (SEQ ID NO:631; sense) and GUGAUUAUUGUUUCAUUAAUC (SEQ ID NO:632; antisense) (listed as RNA, chemistry not given here)”, the “vacuole appearance in TEM” value (U87 cells) was “electron-transparent and had a single membrane”, the “PARP1 mRNA” value (PARP1 mRNA) was “significant repression” and the “γ-H2AX levels (western blot)” value (γ-H2AX) was “increased γ-H2AX levels”. For the same substance, the “γ-H2AX foci per cell” value (γ-H2AX; immunofluorescence) was “significant increase in γ-H2AX foci”, the vacuoles per cell (U87 p53 null KO #4 cells) was “significant increase” and the “reduction of EGF mRNA levels” value (EGF mRNA; 24 hours after C9 KD) was 50%. For the same substance, the “reduction of EGF mRNA levels” value (EGF mRNA; 48 hours) was “about 97%”, the “reduction of EGF mRNA levels” value (EGF mRNA; 72 hours) was “about 97%” and the cell viability [1] was “decrease in their viability”.
